What was measured:
[1] = tested on: naturally occurring pemphigus foliaceus (PF); conditions: dogs with newly diagnosed pemphigus foliaceus; cited from earlier work
eosinophils = test: Phase 2 CSU study: immune cell phenotyping, eosinophil levels; type: in vivo, human; conditions: for Eosinophils (10^9/L) Median Percent Change from Baseline: Baseline to Week 12
From the text: (§1) Collection of biological samples for other biomarker research was also part of this study. The following samples for biomarker research were required and were to be collected from all participants in this study: • Serum and plasma samples for soluble biomarkers and cellular tests. Analytes included IgG anti-IgE, IgG anti-FcεRI, IgG anti-TPO, IgE anti-TPO, IL-31, and sMRGPRX2. • Blood samples for immune cell phenotyping, including measurement of eosinophil levels • Blood samples for BTK occupancy in peripheral blood mononuclear cells (PBMCs) at selected sites

IgG anti-FcεRI = test: Phase 2 CSU study: serum IgG anti-FcεRI ELISA; type: in vivo, human; conditions: for IgG anti-FcεRI (arbitrary unit) Median Percent Change from Baseline: Baseline to Week 12
From the text: (§2) Blood samples were also collected through Week 12 to evaluate the change in baseline in various biomarkers, including sMRGPRX2, IgG anti-TPO, IgG anti-FCεRI, IgG anti-IgE, and IL-31.
as §1
(§3) For each patient, serum samples were to be collected on each of four visits (Visits 2, 4, 6, and end of study/follow up).
(§4) If dilutions were to be prepared, the same dilutions were to be prepared twice from each sample. These were to be measured on different plates. Each plate was to include a standard curve. Samples were to be measured twice for all biomarkers except for sMRGPRX2. Mean measurement values were to be calculated, and the concentration of the biomarker was to be calculated using GraphPad Prism 9 software (4-PL model).
For the IgG anti-FcεRI ELISA, MaxiSorp plates were coated overnight with […] recombinant human FcεRIα and blocked with 10% protein-free blocking buffer diluted in assay buffer. Following the addition of serum samples (1:100 in assay buffer) or the hIgG anti-FcεRI standard (1:2 serial dilution in assay buffer), the plates were incubated at room temperature. Next, the anti-IgG-HRP detection antibody was added to all samples. Development was performed using ECL-prime solution and chemiluminescent signal intensity was measured on the Victor5 multimode plate reader.
(§5) Assay data ranges are described below. • sMRGPRX2: 0.1 ng/mL-10 ng/mL • IgG anti-FCεRI: 0-10000 arbitrary units (AU) • IgG anti-TPO: 0-3000 international units (IU) • IgE anti-TPO: 0-500 AU • IgG anti-IgE: 0-100000 AU • IL-31: 0.1 ng/mL-20 ng/mL

IL-31 = test: Phase 2 CSU study: serum IL-31 HTRF assay; type: in vivo, human; conditions: for IL-31 (ng/mL) Median Percent Change from Baseline: Baseline to Week 12
From the text: as §2, §1, §3
(§6) Serum analyte testing was to be performed using the following commercial assays: • sMRGPRX2 ELISA (Cat. No. #MBS933336; MyBioSource) • IL-31 HTRF assay (Cat. No. #62HIL31PEG; Cisbio/PerkinElmer) • IgG anti-TPO ELISA (Cat. No. #ORG503; Orgentec Diagnostica GmbH)
as §4
The IL-31 HTRF assay was performed according to the manufacturer's instructions.
as §5

sMRGPRX2 = test: Phase 2 CSU study: serum sMRGPRX2 ELISA; type: in vivo, human; conditions: for SMRGPRX2 (ng/mL) Median Percent Change from Baseline: Baseline to Week 12
From the text: as §2, §1, §3, §6, §4
For the sMRGPRX2 ELISA, measurements were performed according to the manufacturer's instructions. Single measurements were obtained for all samples.
as §5

[2] = tested on: fetal development or male fertility; conditions: preclinical; cited from earlier work

SMILES: CC(C)(C=C(C#N)C(=O)N1CCC[C@@H](n2nc(-c3ccc(Oc4ccccc4)cc3F)c3c(N)ncnc32)C1)N1CCN(C2COC2)CC1 [rilzabrutinib, (R)-2-[3-[4-amino-3-(2-fluoro-4-phenoxy-phenyl)pyrazolo[3,4-d]pyrimidin-1-yl]piperidine-1-carbonyl]-4-methyl-4-[4-(oxetan-3-yl)piperazin-1-yl]pent-2-enenitrile]
- cases with disease controlled without corticosteroid [1]: 4 of 4
- reduction in eosinophil levels (eosinophils; 400 mg TID, Week 12): 29.0%
- Eosinophils (10^9/L) Median Percent Change from Baseline (eosinophils; 400 mg BID): −11.8%
- Eosinophils (10^9/L) Median Percent Change from Baseline (eosinophils; 400 mg QPM): 7.7%
- Eosinophils (10^9/L) Median Percent Change from Baseline (eosinophils; 400 mg TID): −29.0%
- reduction from baseline for IgG anti-FCFRI (IgG anti-FcεRI; 400 mg TID, Week 12): 38.7%
- IgG anti-FcεRI (arbitrary unit) Median Percent Change from Baseline (IgG anti-FcεRI; 400 mg BID): −39.0%
- IgG anti-FcεRI (arbitrary unit) Median Percent Change from Baseline (IgG anti-FcεRI; 400 mg QPM): −20.4%
- IgG anti-FcεRI (arbitrary unit) Median Percent Change from Baseline (IgG anti-FcεRI; 400 mg TID): −38.7%
- reduction from baseline median IL-31 levels (IL-31; 400 mg TID, Week 12): 8.1%
- IL-31 (ng/mL) Median Percent Change from Baseline (IL-31; 400 mg BID): −6.8%
- IL-31 (ng/mL) Median Percent Change from Baseline (IL-31; 400 mg QPM): −11.6%
- IL-31 (ng/mL) Median Percent Change from Baseline (IL-31; 400 mg TID): −8.1%
- reduction from baseline median sMRGPRX2 levels (sMRGPRX2; 400 mg TID, Week 12): 22.8%
- SMRGPRX2 (ng/mL) Median Percent Change from Baseline (sMRGPRX2; 400 mg BID): −29.3%
- SMRGPRX2 (ng/mL) Median Percent Change from Baseline (sMRGPRX2; 400 mg QPM): −31.1%
- SMRGPRX2 (ng/mL) Median Percent Change from Baseline (sMRGPRX2; 400 mg TID): −22.8%
- reproductive toxicity [2]: not expected to harm fetal development or male fertility
